Assay results reported in patent publication US20090311217A1, “3-SUBSTITUTED-1H-INDOLE COMPOUNDS, THEIR USE AS MTOR KINASE AND PI3 KINASE INHIBITORS, AND THEIR SYNTHESES” (priority 2008, published 2009).

Assays:
Format in all cases: biochemical
PI3K-gamma = PI3K-gamma (Homo sapiens, UniProt P48736); test: PI3K-gamma fluorescence polarization assay; conditions: PI3Kγ Avg. IC50
Outline: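 Inhibition is derived from a polarization signal: after a 1 h, 25° C kinase step (25 μM ATP, 2.5 μM diC8-PIP2, pH 7), EDTA stops the reaction and the GRP1 PH domain/TMR-IP4 pair reports lipid product.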

PI3K-alpha = PI3K-alpha (Homo sapiens, UniProt P42336); test: PI3K-alpha fluorescence polarization assay; conditions: read-out: PI3Kα Avg. IC50
human TOR = target: T1, human TOR (Homo sapiens, UniProt P42345); test: mTOR enzyme assay (DELFIA, His6-S6K substrate); conditions: read-out: mTOR Kinase Avg. IC50
T1 construct: FLAG

Sequence of PI3K-gamma (P48736 whole entry, species assumed, the tested form may be a part): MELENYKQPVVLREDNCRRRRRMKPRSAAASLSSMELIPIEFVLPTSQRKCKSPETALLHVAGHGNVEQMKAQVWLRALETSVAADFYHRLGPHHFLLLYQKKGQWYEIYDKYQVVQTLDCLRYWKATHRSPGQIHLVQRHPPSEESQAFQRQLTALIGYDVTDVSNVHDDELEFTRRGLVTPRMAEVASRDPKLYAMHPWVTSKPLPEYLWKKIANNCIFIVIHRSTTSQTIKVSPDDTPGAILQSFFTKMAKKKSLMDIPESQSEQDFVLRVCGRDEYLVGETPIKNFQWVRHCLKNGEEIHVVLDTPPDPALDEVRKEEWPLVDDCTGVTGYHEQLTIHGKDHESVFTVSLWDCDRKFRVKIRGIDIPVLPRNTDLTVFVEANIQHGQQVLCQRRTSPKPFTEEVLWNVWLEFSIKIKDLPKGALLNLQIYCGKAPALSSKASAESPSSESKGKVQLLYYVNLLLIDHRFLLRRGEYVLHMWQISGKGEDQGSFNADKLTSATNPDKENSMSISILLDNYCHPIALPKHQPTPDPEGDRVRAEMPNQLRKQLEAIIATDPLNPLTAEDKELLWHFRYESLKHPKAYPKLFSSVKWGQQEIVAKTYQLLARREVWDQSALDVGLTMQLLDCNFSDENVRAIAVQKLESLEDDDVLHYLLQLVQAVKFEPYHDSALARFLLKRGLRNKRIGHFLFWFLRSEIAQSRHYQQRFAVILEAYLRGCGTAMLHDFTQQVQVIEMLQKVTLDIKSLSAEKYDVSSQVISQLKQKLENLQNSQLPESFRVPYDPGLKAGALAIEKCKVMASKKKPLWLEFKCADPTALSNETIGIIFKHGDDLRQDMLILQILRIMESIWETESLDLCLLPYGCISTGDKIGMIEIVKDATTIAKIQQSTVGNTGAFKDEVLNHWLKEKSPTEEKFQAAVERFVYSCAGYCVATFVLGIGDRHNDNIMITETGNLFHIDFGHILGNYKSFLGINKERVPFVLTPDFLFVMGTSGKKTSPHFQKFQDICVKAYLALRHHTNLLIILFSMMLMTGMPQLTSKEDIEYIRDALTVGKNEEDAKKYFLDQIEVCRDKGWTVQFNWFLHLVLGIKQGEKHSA
Sequence of PI3K-alpha (P42336 whole entry, species assumed): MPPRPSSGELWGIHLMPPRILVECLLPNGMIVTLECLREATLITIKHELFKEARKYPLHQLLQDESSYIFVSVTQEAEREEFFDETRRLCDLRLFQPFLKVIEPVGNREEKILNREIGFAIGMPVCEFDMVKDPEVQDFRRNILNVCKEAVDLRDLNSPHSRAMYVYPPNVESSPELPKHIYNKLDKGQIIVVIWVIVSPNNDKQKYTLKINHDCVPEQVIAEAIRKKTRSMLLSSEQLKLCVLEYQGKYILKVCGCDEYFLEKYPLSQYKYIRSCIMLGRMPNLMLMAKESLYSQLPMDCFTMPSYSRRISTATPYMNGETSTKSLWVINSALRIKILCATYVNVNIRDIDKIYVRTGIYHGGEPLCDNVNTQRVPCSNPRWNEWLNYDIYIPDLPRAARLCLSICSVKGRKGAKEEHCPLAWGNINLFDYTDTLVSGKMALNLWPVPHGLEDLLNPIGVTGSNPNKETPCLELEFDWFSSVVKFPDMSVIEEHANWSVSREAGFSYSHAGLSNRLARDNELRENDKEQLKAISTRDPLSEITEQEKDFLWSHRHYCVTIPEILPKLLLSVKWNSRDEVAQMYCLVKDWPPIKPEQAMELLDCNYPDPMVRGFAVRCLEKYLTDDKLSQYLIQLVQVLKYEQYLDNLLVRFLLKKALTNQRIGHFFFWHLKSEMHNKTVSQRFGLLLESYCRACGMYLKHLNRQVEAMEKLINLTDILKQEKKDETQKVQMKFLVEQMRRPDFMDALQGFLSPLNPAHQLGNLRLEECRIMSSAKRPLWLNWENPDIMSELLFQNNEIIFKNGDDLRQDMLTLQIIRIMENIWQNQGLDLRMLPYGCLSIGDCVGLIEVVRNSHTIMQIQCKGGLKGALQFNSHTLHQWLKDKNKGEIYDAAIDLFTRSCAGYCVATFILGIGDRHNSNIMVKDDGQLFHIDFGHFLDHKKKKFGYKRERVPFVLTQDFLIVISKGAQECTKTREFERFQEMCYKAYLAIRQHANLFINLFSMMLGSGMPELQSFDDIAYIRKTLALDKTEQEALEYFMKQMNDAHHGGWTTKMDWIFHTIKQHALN
Sequence of PI3K-alpha (P27986 whole entry partner, species assumed): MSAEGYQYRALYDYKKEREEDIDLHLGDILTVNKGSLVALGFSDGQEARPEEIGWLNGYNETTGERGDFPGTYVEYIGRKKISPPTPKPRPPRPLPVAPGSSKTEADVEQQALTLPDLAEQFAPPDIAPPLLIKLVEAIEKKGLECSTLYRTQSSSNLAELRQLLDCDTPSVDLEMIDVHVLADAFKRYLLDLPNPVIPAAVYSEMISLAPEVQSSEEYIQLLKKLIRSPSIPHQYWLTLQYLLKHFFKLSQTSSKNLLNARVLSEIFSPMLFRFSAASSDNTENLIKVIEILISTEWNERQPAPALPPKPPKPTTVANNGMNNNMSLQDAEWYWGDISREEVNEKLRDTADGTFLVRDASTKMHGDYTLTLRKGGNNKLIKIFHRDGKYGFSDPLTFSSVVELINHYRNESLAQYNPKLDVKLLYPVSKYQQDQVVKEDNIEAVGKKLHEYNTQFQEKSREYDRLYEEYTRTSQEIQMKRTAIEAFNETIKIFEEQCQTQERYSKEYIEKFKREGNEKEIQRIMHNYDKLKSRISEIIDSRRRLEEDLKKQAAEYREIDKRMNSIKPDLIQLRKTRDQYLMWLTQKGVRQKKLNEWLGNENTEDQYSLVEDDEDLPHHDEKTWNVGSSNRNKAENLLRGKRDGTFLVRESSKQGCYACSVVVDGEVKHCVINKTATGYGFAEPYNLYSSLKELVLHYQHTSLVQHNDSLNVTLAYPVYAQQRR

SMILES | IC50 (PI3K-gamma) | IC50 (PI3K-alpha) | IC50 (human TOR)
COc1ccc2c(c1)c(/C=C1\Oc3cc(O)cc(O)c3C1=O)cn2CCn1ccnc1 [Example 312, (2Z)-4,6-Dihydroxy-2-({1-[2-(1H-imidazol-1-yl)ethyl]-5-methoxy-1H-indol-3-yl}methylene)-1-benzofuran-3(2H)-one] | 0.0815 µM | 0.0095 µM | 0.152 µM
COc1ccc2c(c1)c(/C=C1\Oc3cc(O)c(Cl)cc3C1=O)c(C)n2CCCN(C)C [Example 448, (2Z)-5-Chloro-2-({1-[3-(dimethylamino)propyl]-5-methoxy-2-methyl-1H-indol-3-yl}methylene)-6-hydroxy-1-benzofuran-3(2H)-one] | 5.13 µM | 0.142 µM | > 20 µM
O=C1C(=Cc2c[nH]c3c(OCc4ccccc4)cccc23)Oc2cc(O)cc(O)c21 [Example 242, 2-{[7-(benzyloxy)-1H-indol-3-yl]methylene}-4,6-dihydroxy-1-benzofuran-3(2H)-one] | > 10 µM | 1 µM | > 20 µM
Cn1cc(/C=C2\Oc3cc(O)cc(O)c3C2=O)c2c(-c3ccc(NCCN4CCOCC4)nc3)cccc21 [Example 402, (2Z)-4,6-Dihydroxy-2-[(1-methyl-4-{6-[(2-morpholin-4-ylethyl)amino]pyridin-3-yl}-1H-indol-3-yl)methylene]-1-benzofuran-3(2H)-one] | 5.94 µM | 3.74 µM | 0.355 µM
COc1ccc2[nH]c(-c3c(C)nn(C)c3C)c(/C=C3\Oc4ccc(NC(=O)Nc5ccc(C(=O)NCCN(C)C)cc5)cc4C3=O)c2c1 [Compound 711, N-[2-(dimethylamino)ethyl]-4-({[(2Z)-2-{[5-methoxy-2-(1,3,5-trimethyl-1H-pyrazol-4-yl)-1H-indol-3-yl]methylidene}-3-oxo-2,3-dihydro-1-benzofuran-5-yl]carbamoyl}amino)benzamide] | 0.00225 µM | 0.0004 µM | < 0.001 µM
COc1ccc2[nH]c(-c3c(C)nn(C)c3C)c(/C=C3\Oc4ccc(NC(=O)Nc5ccc(C(=O)N6CCN(C)C(C)C6)cc5)cc4C3=O)c2c1 (stereo not drawn) [Compound 703, 1-{4-[(3,4-dimethylpiperazin-1-yl)carbonyl]phenyl}-3-[(2Z)-2-{[5-methoxy-2-(1,3,5-trimethyl-1H-pyrazol-4-yl)-1H-indol-3-yl]methylidene}-3-oxo-2,3-dihydro-1-benzofuran-5-yl]urea] | 0.0025 µM | 0.0003 µM | 0.003 µM
CN(C)C(=O)Nc1ccc(-c2cccc3c2c(/C=C2\Oc4cc(O)cc(O)c4C2=O)cn3C)cc1 [Example 394, 3-(4-{3-[(Z)-(4,6-dihydroxy-3-oxo-1-benzofuran-2(3H)-ylidene)methyl]-1-methyl-1H-indol-4-yl}phenyl)-1,1-dimethylurea] | 4.12 µM | 0.46 µM | 0.069 µM
COc1ccc2c(c1)c(/C=C1\Oc3cc(O)cc(O)c3C1=O)c(C1CC1)n2CC(=O)N(C)C [Example 444, 2-{2-Cyclopropyl-3-[(Z)-(4,6-dihydroxy-3-oxo-1-benzofuran-2(3H)-ylidene)methyl]-5-methoxy-1H-indol-1-yl}-N,N-dimethylacetamide] | 0.1 µM | 0.0655 µM | 0.0123 µM
CNC(=S)Nc1ccc2c(c1)C(=O)/C(=C/c1c(C)n(CCN3CCN(C)CC3)c3ccc(OC)cc13)O2 [Compound 647, 1-[(2Z)-2-({5-methoxy-2-methyl-1-[2-(4-methylpiperazin-1-yl)ethyl]-1H-indol-3-yl}methylene)-3-oxo-2,3-dihydro-1-benzofuran-5-yl]-3-methylthiourea] | 4.85 µM | 0.01 µM | 1.26 µM
CNC(=O)Nc1ccc2c(c1)C(=O)/C(=C/c1c(-c3c(C)n[nH]c3C)[nH]c3c(F)cc(OC)cc13)O2 [Compound 714, 1-[(2Z)-2-{[2-(3,5-dimethyl-1H-pyrazol-4-yl)-7-fluoro-5-methoxy-1H-indol-3-yl]methylidene}-3-oxo-2,3-dihydro-1-benzofuran-5-yl]-3-methylurea] | 0.0037 µM | 0.00055 µM | < 0.001 µM
COc1ccc2c(c1)c(/C=C1\Oc3cc(O)cc(Cl)c3C1=O)c(C)n2CCCN(C)C [Example 466, (2Z)-4-Chloro-2-({1-[3-(dimethylamino)propyl]-5-methoxy-2-methyl-1H-indol-3-yl}methylene)-6-hydroxy-1-benzofuran-3(2H)-one] | 1.27 µM | 0.073 µM | 7.5 µM
COc1ccc2[nH]c(-c3c(C)nn(C)c3C)c(/C=C3\Oc4ccc(NC(=O)Nc5ccc(C(=O)N6CCS(=O)(=O)CC6)cc5)cc4C3=O)c2c1 [Compound 720, 1-{4-[(1,1-dioxidothiomorpholin-4-yl)carbonyl]phenyl}-3-[(2Z)-2-{[5-methoxy-2-(1,3,5-trimethyl-1H-pyrazol-4-yl)-1H-indol-3-yl]methylidene}-3-oxo-2,3-dihydro-1-benzofuran-5-yl]urea] | 0.00175 µM | 0.0004 µM | 0.002 µM
CNC(=O)Nc1cc2c(cc1C)O/C(=C\c1c(C)n(CCN3CCN(C)CC3)c3ccc(OC)cc13)C2=O [Compound 640, 1-[(2Z)-2-({5-methoxy-2-methyl-1-[2-(4-methylpiperazin-1-yl)ethyl]-1H-indol-3-yl}methylene)-6-methyl-3-oxo-2,3-dihydro-1-benzofuran-5-yl]-3-methylurea] | 6.04 µM | 0.488 µM | 1.45 µM
COc1ccc2[nH]c(-c3c(C)nn(C)c3C)c(/C=C3\Oc4ccc(NC(=O)Nc5ccc(C(=O)N6CCN(C(C)C)CC6)cc5)cc4C3=O)c2c1 [Compound 700, 1-[(2Z)-2-{[5-methoxy-2-(1,3,5-trimethyl-1H-pyrazol-4-yl)-1H-indol-3-yl]methylidene}-3-oxo-2,3-dihydro-1-benzofuran-5-yl]-3-(4-{[4-(1-methylethyl)piperazin-1-yl]carbonyl}phenyl)urea] | 0.003 µM | 0.0004 µM | 0.002 µM
CNC(=O)Nc1ccc2c(c1)C(=O)/C(=C/c1c(N3CCN(C)CC3)n(CCN3CCN(C)CC3)c3ccc(OC)cc13)O2 [Compound 636, 1-[(2Z)-2-({5-methoxy-2-(4-methylpiperazin-1-yl)-1-[2-(4-methylpiperazin-1-yl)ethyl]-1H-indol-3-yl}methylene)-3-oxo-2,3-dihydro-1-benzofuran-5-yl]-3-methylurea] | 1.01 µM | 0.004 µM | 0.165 µM
COc1ccc2[nH]c(C3CCCCC3)c(/C=C3\Oc4ccc(NC(=O)Nc5ccc(C(=O)N6CCN(C)CC6)cc5)cc4C3=O)c2c1 [Compound 644, 1-{(2Z)-2-[(2-cyclohexyl-5-methoxy-1H-indol-3-yl)methylene]-3-oxo-2,3-dihydro-1-benzofuran-5-yl}-3-{4-[(4-methylpiperazin-1-yl)carbonyl]phenyl}urea] | 0.0025 µM | 0.0003 µM | 0.033 µM
Cn1cc(/C=C2\Oc3cc(O)cc(O)c3C2=O)c2c(-c3ccncc3)cccc21 [Example 373, (2Z)-4,6-Dihydroxy-2-[(1-methyl-4-pyridin-4-yl-1H-indol-3-yl)methylene]-1-benzofuran-3(2H)-one] | > 10 µM | 4.77 µM | 0.3 µM
COc1ccc2c(c1)c(/C=C1\Oc3c(ccc(O)c3Cl)C1=O)c(C)n2CCCN(C)C [Example 361, (2Z)-7-Chloro-2-({1-[3-(dimethylamino)propyl]-5-methoxy-2-methyl-1H-indol-3-yl}methylene)-6-hydroxy-1-benzofuran-3(2H)-one] | 3.44 µM | 0.306 µM | > 0.8 µM
